The experiment concerns the target Delta-type opioid receptor (Mus musculus, UniProt P32300). The experiment can be described thus: Agonist activity at delta opioid receptor in ICR mouse isolated vas deferens assessed as inhibition of electrically-stimulated muscle contraction.

By IC50 is commonly meant the point on the concentration scale where inhibition reaches its midpoint.

Delta-type opioid receptor, sequence (P32300 whole entry): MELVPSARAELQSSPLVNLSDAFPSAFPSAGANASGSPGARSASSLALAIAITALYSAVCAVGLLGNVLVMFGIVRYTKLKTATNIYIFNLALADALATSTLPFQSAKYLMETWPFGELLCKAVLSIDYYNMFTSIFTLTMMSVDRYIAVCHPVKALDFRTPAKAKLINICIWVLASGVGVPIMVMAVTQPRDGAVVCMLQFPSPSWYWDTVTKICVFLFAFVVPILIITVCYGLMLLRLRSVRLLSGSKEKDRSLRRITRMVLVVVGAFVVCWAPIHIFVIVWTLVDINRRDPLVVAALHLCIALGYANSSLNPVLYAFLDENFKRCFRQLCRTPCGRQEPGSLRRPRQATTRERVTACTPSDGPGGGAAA

On to `CC(C)C[C@H](NC(=O)[C@@H]1CCCN1C(=O)[C@H](Cc1ccc(F)cc1)NC(=O)CNC(=O)[C@@H](C)NC(=O)[C@@H](N)Cc1ccc(O)cc1)C(=O)N[C@@H](Cc1c[nH]c2ccccc12)C(=O)NCc1cc(C(F)(F)F)cc(C(F)(F)F)c1`, for which the IC50 was found to be 12 nM.

The record behind these values is BindingDB's records for doi:10.1021/acs.jmedchem.5b01170 (University of Arizona, 2015).
